Source: the NIST ThermoML archive (doi:10.1016/j.fluid.2005.09.025)
± gives the expanded uncertainty stated by the source.

Details: 298.15 K, 101.33 kPa, Liquid

With `CCCC(C)C` [2-methylpentane] the mass density (Vibrating tube method) was 648.45 ± 0.22 kg/m3.
Work on `CN(C)C=O` [dimethylformamide] yielded a mass density (Vibrating tube method) of 943.81 ± 0.09 kg/m3.
Work on `CO` [methanol] yielded a mass density (Vibrating tube method) of 786.55 ± 0.16 kg/m3.
`CC1CCCCC1` [methylcyclohexane] showed a mass density of 764.96 ± 0.35 kg/m3.
